{"source": "patent US20240239854A1", "about": "“ANTIMICROBIAL PEPTIDES AND MODIFICATIONS THEREOF” (Donald Danforth Plant Science Center, priority 2022, published 2024)", "key": {"F. oxysporum": {"system": "F. oxysporum", "assay": "Antifungal MIC assay in SFM culture media (Example 1)", "assay_type": "cell-based", "details": "Table 2; SFM culture media"}, "B. cinerea [1]": {"system": "B. cinerea"}, "Alternaria alternata": {"system": "Alternaria alternata", "assay": "96-well plate antifungal MIC, resazurin cell viability (Example 4)", "assay_type": "cell-based", "details": "Table 19; unit not given, peptide concentrations in μM"}, "Cercospora sojina": {"system": "Cercospora sojina", "assay": "96-well plate antifungal MIC, resazurin cell viability (Example 4)", "assay_type": "cell-based", "details": "Table 19; unit not given, peptide concentrations in μM"}, "[2]": {"system": "Colletotrichum gloeosporioides", "assay": "96-well plate antifungal MIC, resazurin cell viability (Example 4)", "assay_type": "cell-based", "details": "Table 19; unit not given, peptide concentrations in μM"}, "B. cinerea [3]": {"system": "B. cinerea", "assay": "Semi-in planta drop inoculation assay on detached leaves of N. benthamiana, gray mold (Example 4)", "assay_type": "in vivo", "details": "for Reduction of gray mold disease symptoms (lesion sizes): peptide 1.5, 3 and 6 μM, 48 h after inoculation"}, "Botrytis cinerea T-4": {"system": "Botrytis cinerea T-4", "details": "for MIC (μM) SFM: Table 18, SFM; for MIC (μM) (SFM + 2 mM CaCl2): Table 18, SFM + 2 mM CaCl2; for MIC (μM) (SFM + 100 mM KCl): Table 18, SFM + 100 mM KCl; for MIC (μM) (SFM + 100 mM NaCl): Table 18, SFM + 100 mM NaCl"}}, "note": "Read-outs that look alike come from different tables or passages of the source. Positions of bridges follow the written chain, without caps; N, C: chain ends. Residues, ends and D or L forms follow the SMILES beside them. No end group written: not given here."}
{"compound": "C[C@@H](O)[C@H](NC(=O)[C@H](CS)NC(=O)[C@H](Cc1ccccc1)NC(=O)[C@H](CS)NC(=O)[C@H](CCCNC(=N)N)NC(=O)[C@H](CCCNC(=N)N)NC(=O)[C@H](CCCNC(=N)N)NC(=O)[C@H](Cc1ccccc1)NC(=O)CNC(=O)[C@H](CCCNC(=N)N)NC(=O)[C@H](CS)NC(=O)[C@H](CCCNC(=N)N)NC(=O)CNC(=O)CN)C(=O)N[C@H](C(=O)N[C@@H](Cc1c[nH]cn1)C(=O)N[C@@H](CS)C(N)=O)[C@@H](C)O", "note": "[GMA4C_AC] (H-GGRCRGFRRRCFCTTHC-NH2; N-terminus assumed)", "values": [{"measurement": "F. oxysporum MIC", "setting": "F. oxysporum", "value": 6, "unit": "μuM"}, {"measurement": "Retention of antifungal activity in presence of cations", "setting": "B. cinerea [1]; B. cinerea, 100 mM NaCl or 100 mM KCl", "value": "retain their antifungal activity"}, {"measurement": "SFM + 2 mM CaCl2 MIC", "setting": "B. cinerea [1]; Table 4, B. cinerea", "value": ">6 (a few μM"}, {"measurement": "SFM + 2 mM CaCl2 MIC", "setting": "B. cinerea [1]; Table 10, values repeat Table 4 (B. cinerea)", "value": ">6 (a μM"}, {"measurement": "F. graminearum MIC", "setting": "F. graminearum", "value": 3, "unit": "µM"}, {"measurement": "MIC (μM) Fusarium graminearum", "setting": "F. graminearum", "value": 3, "unit": "µM"}, {"measurement": "MIC Values (μM) against F. graminearum", "setting": "F. graminearum", "value": 6, "unit": "µM"}]}
{"compound": "CC[C@H](C)[C@@H]1NC(=O)[C@H](CCCNC(=N)N)NC(=O)[C@H]([C@@H](C)O)NC(=O)[C@H](Cc2ccccc2)NC(=O)[C@H](Cc2c[nH]c3ccccc23)NC(=O)[C@H](Cc2ccccc2)NC(=O)[C@H](CCCNC(=N)N)NC(=O)[C@H](CCCNC(=N)N)NC(=O)[C@H](CC(C)C)NC(=O)[C@H](Cc2ccccc2)NC(=O)CNC(=O)[C@H](CCCCN)NC(=O)[C@@H](NC(=O)[C@H](CCCNC(=N)N)NC(=O)CNC(=O)CN)CSSC[C@@H](C(N)=O)NC1=O", "note": "[GMA4C_V9] (H-GGRCKGFLRRFWFTRIC-NH2; disulfide 4-17; N-terminus assumed)", "values": [{"measurement": "In vitro antifungal activity (MIC) Alternaria alternata", "setting": "Alternaria alternata", "value": ">12"}, {"measurement": "In vitro antifungal activity (MIC) Cercospora sojina", "setting": "Cercospora sojina", "value": 6}, {"measurement": "In vitro antifungal activity (MIC) Colletotrichum gloeosporioides", "setting": "[2]", "value": ">12"}, {"measurement": "Reduction of gray mold disease symptoms (lesion sizes)", "setting": "B. cinerea [3]; detached N. benthamiana leaves", "value": "effective in reducing gray mold disease symptoms"}, {"measurement": "MIC (μM) SFM", "setting": "Botrytis cinerea T-4", "value": 3, "unit": "µM"}, {"measurement": "MIC (μM) (SFM + 2 mM CaCl2)", "setting": "Botrytis cinerea T-4", "value": 12, "unit": "µM"}, {"measurement": "MIC (μM) (SFM + 100 mM KCl)", "setting": "Botrytis cinerea T-4", "value": "6 to 12", "unit": "µM"}, {"measurement": "MIC (μM) (SFM + 100 mM NaCl)", "setting": "Botrytis cinerea T-4", "value": 3, "unit": "µM"}]}
{"compound": "CC[C@H](C)[C@@H]1NC(=O)[C@H](CCCNC(=N)N)NC(=O)[C@H]([C@@H](C)O)NC(=O)[C@H](Cc2c[nH]c3ccccc23)NC(=O)[C@H](Cc2ccc(O)cc2)NC(=O)[C@H](Cc2c[nH]c3ccccc23)NC(=O)[C@H](CCCNC(=N)N)NC(=O)[C@H](CCCNC(=N)N)NC(=O)[C@H](CCCNC(=N)N)NC(=O)[C@H](Cc2ccccc2)NC(=O)CNC(=O)[C@H](CCCCN)NC(=O)[C@@H](NC(=O)[C@H](CCCNC(=N)N)NC(=O)CNC(=O)CN)CSSC[C@@H](C(N)=O)NC1=O", "note": "[GMA4C_V10] (H-GGRCKGFRRRWYWTRIC-NH2; disulfide 4-17; N-terminus assumed)", "values": [{"measurement": "In vitro antifungal activity (MIC) Alternaria alternata", "setting": "Alternaria alternata", "value": ">12"}, {"measurement": "In vitro antifungal activity (MIC) Cercospora sojina", "setting": "Cercospora sojina", "value": 6}, {"measurement": "In vitro antifungal activity (MIC) Colletotrichum gloeosporioides", "setting": "[2]", "value": ">12"}, {"measurement": "Reduction of gray mold symptoms at low concentrations", "setting": "B. cinerea [3]; detached N. benthamiana leaves, peptide 1.5 μM and 3 μM", "value": "more effective in reducing the symptoms of gray mold than GMA4C_V9"}, {"measurement": "Reduction of gray mold disease symptoms (lesion sizes)", "setting": "B. cinerea [3]; detached N. benthamiana leaves", "value": "effective in reducing gray mold disease symptoms"}, {"measurement": "MIC (μM) SFM", "setting": "Botrytis cinerea T-4", "value": 3, "unit": "µM"}, {"measurement": "MIC (μM) (SFM + 2 mM CaCl2)", "setting": "Botrytis cinerea T-4", "value": 3, "unit": "µM"}, {"measurement": "MIC (μM) (SFM + 100 mM KCl)", "setting": "Botrytis cinerea T-4", "value": "3 to 6", "unit": "µM"}, {"measurement": "MIC (μM) (SFM + 100 mM NaCl)", "setting": "Botrytis cinerea T-4", "value": 3, "unit": "µM"}]}
{"compound": "C[C@H](NC(=O)CN)C(=O)N[C@H]1CSSC[C@@H](C(N)=O)NC(=O)[C@H](CCCCN)NC(=O)[C@H](CCCCN)NC(=O)[C@H](Cc2ccc(O)cc2)NC(=O)[C@H](Cc2c[nH]c3ccccc23)NC(=O)[C@H](Cc2ccccc2)NC(=O)[C@H](Cc2c[nH]c3ccccc23)NC(=O)[C@H](C)NC(=O)[C@H](Cc2ccccc2)NC(=O)CNC(=O)[C@H](Cc2ccccc2)NC(=O)CNC(=O)[C@H](CCC(N)=O)NC(=O)[C@H](CCCNC(=N)N)NC(=O)[C@H](Cc2c[nH]cn2)NC1=O", "note": "[GMA5CA_V3] (H-GACHRQGFGFAWFWYKKC-NH2; disulfide 3-18; N-terminus assumed)", "values": [{"measurement": "In vitro antifungal activity (MIC) Alternaria alternata", "setting": "Alternaria alternata", "value": 3}, {"measurement": "In vitro antifungal activity (MIC) Cercospora sojina", "setting": "Cercospora sojina", "value": 6}, {"measurement": "In vitro antifungal activity (MIC) Colletotrichum gloeosporioides", "setting": "[2]", "value": ">12"}, {"measurement": "MIC (μM) SFM", "setting": "Botrytis cinerea T-4", "value": 3, "unit": "µM"}, {"measurement": "MIC (μM) (SFM + 2 mM CaCl2)", "setting": "Botrytis cinerea T-4", "value": ">12", "unit": "µM"}, {"measurement": "MIC (μM) (SFM + 100 mM KCl)", "setting": "Botrytis cinerea T-4", "value": ">12", "unit": "µM"}, {"measurement": "MIC (μM) (SFM + 100 mM NaCl)", "setting": "Botrytis cinerea T-4", "value": ">12", "unit": "µM"}]}
{"compound": "C[C@H](NC(=O)CN)C(=O)N[C@H]1CSSC[C@@H](C(N)=O)NC(=O)[C@H](CCCCN)NC(=O)[C@H](CCCCN)NC(=O)[C@H](Cc2ccc(O)cc2)NC(=O)[C@H](Cc2ccccc2)NC(=O)[C@H](Cc2ccccc2)NC(=O)[C@H](Cc2ccccc2)NC(=O)[C@H](C)NC(=O)[C@H](Cc2ccccc2)NC(=O)CNC(=O)[C@H](Cc2ccccc2)NC(=O)CNC(=O)[C@H](CCC(N)=O)NC(=O)[C@H](CCCNC(=N)N)NC(=O)[C@H](Cc2c[nH]cn2)NC1=O", "note": "[GMA5CA_V4] (H-GACHRQGFGFAFFFYKKC-NH2; disulfide 3-18; N-terminus assumed)", "values": [{"measurement": "In vitro antifungal activity (MIC) Alternaria alternata", "setting": "Alternaria alternata", "value": 3}, {"measurement": "In vitro antifungal activity (MIC) Cercospora sojina", "setting": "Cercospora sojina", "value": 6}, {"measurement": "In vitro antifungal activity (MIC) Colletotrichum gloeosporioides", "setting": "[2]", "value": ">12"}, {"measurement": "MIC (μM) SFM", "setting": "Botrytis cinerea T-4", "value": 3, "unit": "µM"}, {"measurement": "MIC (μM) (SFM + 2 mM CaCl2)", "setting": "Botrytis cinerea T-4", "value": ">12", "unit": "µM"}, {"measurement": "MIC (μM) (SFM + 100 mM KCl)", "setting": "Botrytis cinerea T-4", "value": ">12", "unit": "µM"}, {"measurement": "MIC (μM) (SFM + 100 mM NaCl)", "setting": "Botrytis cinerea T-4", "value": ">12", "unit": "µM"}]}
{"compound": "C[C@H](NC(=O)CN)C(=O)N[C@@H](CS)C(=O)N[C@@H](Cc1c[nH]cn1)C(=O)N[C@@H](CCCNC(=N)N)C(=O)N[C@@H](CCC(N)=O)C(=O)NCC(=O)N[C@@H](Cc1ccccc1)C(=O)NCC(=O)N[C@@H](Cc1ccccc1)C(=O)N[C@@H](C)C(=O)N[C@@H](CS)C(=O)N[C@@H](Cc1ccccc1)C(=O)N[C@@H](CS)C(=O)N[C@@H](Cc1ccc(O)cc1)C(=O)N[C@@H](CCCCN)C(=O)N[C@@H](CCCCN)C(=O)N[C@@H](CS)C(N)=O", "note": "[GMA5CA_WT] (H-GACHRQGFGFACFCYKKC-NH2)", "values": [{"measurement": "In vitro antifungal activity (MIC) Alternaria alternata", "setting": "Alternaria alternata", "value": 6}, {"measurement": "In vitro antifungal activity (MIC) Cercospora sojina", "setting": "Cercospora sojina", "value": 12}, {"measurement": "In vitro antifungal activity (MIC) Colletotrichum gloeosporioides", "setting": "[2]", "value": ">12"}]}
{"compound": "CC(C)C[C@@H]1NC(=O)[C@@H](NC(=O)[C@H](C)NC(=O)CN)CSSC[C@@H](C(=O)N[C@@H](Cc2ccc(O)cc2)C(N)=O)NC(=O)[C@H](Cc2c[nH]cn2)NC(=O)[C@H](CCCNC(=N)N)NC(=O)[C@H](Cc2ccc(O)cc2)NC(=O)[C@H](Cc2ccc(O)cc2)NC(=O)[C@H](Cc2c[nH]c3ccccc23)NC(=O)[C@H](Cc2ccccc2)NC(=O)[C@H](Cc2c[nH]c3ccccc23)NC(=O)CNC(=O)[C@H](Cc2ccc(O)cc2)NC(=O)[C@H](Cc2c[nH]cn2)NC(=O)[C@H](CCCCN)NC(=O)[C@H](CO)NC(=O)[C@H](Cc2c[nH]cn2)NC(=O)[C@H](CCCNC(=N)N)NC(=O)[C@H](CC(N)=O)NC(=O)[C@H](CCCCN)NC1=O", "note": "[GMAOe1C_V3] (H-GACLKNRHSKHYGWFWYYRHCY-NH2; disulfide 3-21; N-terminus assumed)", "values": [{"measurement": "Reduction of gray mold symptoms at 1.5 μM", "setting": "B. cinerea [3]; drop inoculation assay, peptide 1.5 μM", "value": "more effective than GMAOe1C_V4 or GMAOe1C_WT"}, {"measurement": "MIC (μM) SFM", "setting": "Botrytis cinerea T-4", "value": 1.5, "unit": "µM"}, {"measurement": "MIC (μM) (SFM + 2 mM CaCl2)", "setting": "Botrytis cinerea T-4", "value": "3 to 6", "unit": "µM"}, {"measurement": "MIC (μM) (SFM + 100 mM KCl)", "setting": "Botrytis cinerea T-4", "value": "6 to 12", "unit": "µM"}, {"measurement": "MIC (μM) (SFM + 100 mM NaCl)", "setting": "Botrytis cinerea T-4", "value": "2 to 3", "unit": "µM"}]}
{"compound": "GRCRGFRRRCFCTTHC-NH2 (cysteine pairing not given here) [GMA4AC]", "values": [{"measurement": "In vitro antifungal activity (MIC) Alternaria alternata", "setting": "Alternaria alternata", "value": ">12"}, {"measurement": "In vitro antifungal activity (MIC) Cercospora sojina", "setting": "Cercospora sojina", "value": ">12"}, {"measurement": "In vitro antifungal activity (MIC) Colletotrichum gloeosporioides", "setting": "[2]", "value": ">12"}]}
